According to PubChem BioAssay (NCI):
“And” between values parts separate entries of the source, which are not always exact repeats. Identical values can stand only once.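 Results reflect a 48-hour exposure of cells in 96-well plates to compound at five concentrations. Abbreviation: GI50, concentration required for 50% inhibition of growth. At the TGI there is no net growth.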

Experiments:
Test in all cases: growth of human tumour cells (NCI), 48 h
[1] = test system: A498 renal
[2] = test system: CCRF-CEM leukemia
[3] = test system: DU-145 prostate
[4] = test system: HT29 colon
[5] = test system: OVCAR-8 ovarian
[6] = test system: RXF 393 renal
[7] = test system: SK-OV-3 ovarian
[8] = test system: SW-620 colon
[9] = test system: U251 CNS
[10] = test system: SK-MEL-2 melanoma

Compound	TGI [1] [µM]	TGI [2] [µM]	TGI [3] [µM]	TGI [4] [µM]	TGI [5] [µM]	TGI [6] [µM]	TGI [7]	TGI [8] [µM]	TGI [9] [µM]	TGI [10] [µM]	GI50 [1] [µM]	GI50 [3] [µM]	GI50 [4] [µM]	GI50 [5] [µM]	GI50 [10] [µM]	GI50 [7] [µM]	GI50 [9] [µM]	GI50 [2] [µM]
O=C1OC2(C(F)(F)F)Oc3ccccc3CN2C12CCCCC2 (stereo not given)	> 100	62.7	> 100	> 100	> 100	48.9	81.7 µM	> 100	84.4									
O=C(NC1(C(=O)NNc2nnc(-c3ccccc3)c(-c3ccccc3)n2)C(c2ccccc2)C(c2ccccc2)=NN1c1ccccc1)c1ccccc1 (stereo not given)	> 100		> 100	> 100	> 100	> 100	> 100 µM	> 100	> 100	> 100								
S=c1nc2[nH]c3ccc(Br)cc3c2n[nH]1	> 100		> 100	> 100	> 100	> 100	> 100 µM	> 100	> 100	90								
CSc1nc(NC2OCC(O)C(O)C2O)c(N)c(=O)n1C (stereo not given)	> 100	> 100		> 100	> 100	> 100	> 100 µM	> 100	> 100	> 100								
CCOP(=O)(OCC)/C(=C\N1C(=O)CC(=O)NC1=S)C(=O)OC	> 100		> 100	> 100	> 100	> 100	> 100 µM	> 100	> 100	> 100								
NC(c1ccccc1)(C(F)(F)F)P1(=O)OC(=O)c2ccccc2O1 (stereo not given)	> 100		> 100	> 100	> 100	> 100	74.4 µM	> 100	> 100	> 100								
COC(=O)c1nc(-c2ccc3c(n2)C(=O)C(N)=C(OC)C3=O)c(N)c(-c2ccc(OC)c(OC)c2O)c1C	3.17	> 100		4.43		3.55	3.73 µM	6.88	2.37	3.26								
O=C(NNc1cn[nH]c(=O)c1Cl)/C(=C/c1ccc2c(c1)OCO2)NC(=O)c1ccccc1			> 100	> 100	> 100		> 100 µM	> 100	> 100	> 100								
CCOC(=O)c1c2c(n3ccc(NC(=O)OC(C)(C)C)cc13)C(=O)c1ncccc1C2=O	4.44		1.66	2.22	2.09		1.48 µM		1.25	9.24	0.0339	0.0653	0.638	0.148	0.44	0.236	0.0465	
CN1C/C(=C\c2ccc(Cl)cc2)C(=O)/C(=C/c2ccc(Cl)cc2)C1	3.2	1.37	> 100	0.824	0.605	1.22		> 100	2.46	> 100								
c1cc(C[S+]2CCCC2)ccc1C[S+]1CCCC1	> 100	> 100	> 100	> 100	> 100	> 100	> 100 µM	> 100	> 100									
O=C(c1ccccc1)c1c(C(F)(F)F)n([O-])c2cc(Cl)c(Cl)cc2[n+]1=O		3.7	0.985	0.966	20.9	5.52	8.99 µM	6.72	2.71	7.7								
COc1ccc(C(=C(I)c2ccccc2)c2ccc(OC)cc2)cc1		> 100	> 100	> 100	> 100	> 100	> 100 µM	> 100	> 100	> 100								
O=c1c2ccccc2n2nnc3ccc(NCCCNCCNCCCNc4ccc5nnn6c7ccccc7c(=O)c4c56)c1c32	> 37	> 50	> 50	1.52	> 20.2	22.6	> 41.2 µM	> 22.6		> 50								
CCOC(=O)C(NC(=O)CC(C)C)(Nc1ccc(C(F)(F)F)cc1)C(F)(F)F (stereo not given)		> 100	> 100	> 100	> 100	> 100	> 100 µM	> 100	> 100	> 100								
N/N=C1/C(=N/O)CCc2nonc21		> 100	> 100	> 100	> 100	> 100	> 100 µM	> 100	> 100	> 100								
CC1(C)[C@@H](Cn2cnc3c(=O)[nH]c(N)nc32)CC[C@@]1(C)CO	> 100	> 100	> 100			> 100	> 100 µM	> 100	> 100	> 100								
C=CCN(c1cc(OCc2ccccc2)c(NC(C)=O)cc1[N+](=O)[O-])S(C)(=O)=O	41.6	> 100	> 100	> 100	50.3	40.3	38.7 µM	> 100		73.1								
Cc1cc(N=Cc2c(CO)cnc(C)c2O)c(N=Cc2c(CO)cnc(C)c2O)cc1C.[Zn]	> 100		> 100	> 100	> 100	> 100	> 100 µM	> 100	> 100	> 100								
COc1ccc(C[C@H](N)C(=O)N2C[C@H](CO)C[C@H](n3cnc4c(N(C)C)ncnc43)C2)cc1		> 100		> 100	> 100	> 100	> 100 µM	> 100	> 100	> 100								
OCC(O)C1OC2CC1Nc1ccccc1N2 (stereo not given)	> 100	> 100	> 100	> 100	> 100		> 100 µM	> 100	> 100	> 100								
CN(C)CCCNc1c2ccccc2nc2cccc([N+](=O)[O-])c12	0.00198	0.196	0.0131				0.0921 µM and 0.0723 µM		0.0143	0.00221				< 0.001		0.0204		0.029
COc1ccc(-c2nc(-c3cc4ccccc4oc3=O)cs2)cc1		> 100	> 100	> 100	56.3	> 100	91.6 µM	> 100	47.4	> 100								

Compound	TGI [1] [µM]	TGI [2] [µM]	TGI [3] [µM]	TGI [4] [µM]	TGI [5] [µM]	TGI [6] [µM]	TGI [7]	TGI [8] [µM]	TGI [9] [µM]	TGI [10] [µM]	GI50 [1] [µM]	GI50 [3] [µM]	GI50 [4] [µM]	GI50 [5] [µM]	GI50 [10] [µM]	GI50 [7] [µM]	GI50 [9] [µM]	GI50 [2] [µM]
CC(=O)NC1C(OCc2ccccc2)OC(CO)C(O)C1OCC(=O)NC(C)C(=O)NC(CCC(=O)NCCCCCNc1c2ccccc2nc2cccc([N+](=O)[O-])c12)C(N)=O (stereo not given)	< 0.0001			< 0.0001	0.017			0.000315	< 0.0001	< 0.0001								
C=C(CC(=O)Nc1ccc(C(=O)OC)o1)C(=O)OC	> 100		> 100	70.2	> 100	33.3	86.3 µM	53.5	> 100	46.7								
Cc1ccc(S(=O)(=O)NC(=O)NCCC(=O)O)cc1		> 100	> 100	> 100	> 100	> 100	> 100 µM	> 100	> 100	> 100								
Cn1c(-c2ccc[se]2)ccc1-c1ccc(CO)[se]1	0.14	> 100	> 78		> 100	6.26	42.5 µM	> 100	15.8	> 100								
COc1ccc(C[C@H](N)C(=O)N2C[C@H](CO)C[C@H](n3ccc(=O)[nH]c3=O)C2)cc1		> 100		> 100	> 100	> 100	> 100 µM	> 100	> 100	> 100								
CC(C)(C)OC(=O)NC(Cc1ccc(O)cn1)C(N)=O (stereo not given)	> 100		> 100	> 100	> 100	> 100		> 100	> 100									
NS(=O)(=O)c1ccc(Nc2c3ccccc3nc3c(C(=O)NCCCN(CCO)CCO)cccc23)cc1	> 100	58.6	> 100	77	> 100		> 100 µM	52.7	31.7	58.9								
CC(C)(C)n1c(=O)n(C(=O)C(Cl)(Cl)Cl)n(C(=O)C(Cl)(Cl)Cl)c1=O		> 100	> 100	> 100	> 100	> 100	> 100 µM	> 100	> 100	> 100								
Cc1cc2ccccc2n1CC(=O)N1CCCC1		> 100	> 100	> 100	> 100	> 100	> 100 µM	> 100	> 100	> 100								
COc1ccccc1NC(=S)N/N=C(/C)c1ccccn1		0.0737	> 100	> 100	> 100	23.4	> 89.2 µM	> 100	> 100	> 88.7								
CCOC(=O)CCc1c(C(=O)OCC)[nH]c(/C=C2\NC(=O)C(C)=C2CC)c1C		> 100	55.6	> 100	18.9	49	48.3 µM		33.9	42.5								
COc1ccc(/C=C(\C(=C/c2ccc(OC)cc2)[N+](=O)[O-])[N+](=O)[O-])cc1	79		24.6	11.1	5.97	4.33	32.4 µM	7.87	8.52	39.7								
Cc1ccc(C)c(COCCOCn2cc(Br)c(N)nc2=O)c1	> 100	> 100	> 100		> 100	> 100	> 100 µM	> 100	> 100	> 100								
CN(C)CCOC(=O)c1ccc(N)cc1	> 100	69.8	> 100	> 100	> 100	> 100	> 100 µM	> 100	> 100									
CC(=Nc1c2ccccc2nc2ccccc12)N(C)C		> 100	> 100	27.4	52.4	78.1	> 100 µM		72	46								
C[C@H](CC[C@@H](O)C(C)(C)O)[C@H]1CC[C@@]2(C)[C@@H]3CC=C4[C@@H](CC[C@H](O)C4(C)C)[C@]3(C)C(=O)C[C@]12C	> 50	> 50	> 50	> 50	> 50		> 50 µM	> 50	> 50	> 50								
Cc1ccc(NC(=S)Nc2c(C)n(C)n(-c3ccccc3)c2=O)cc1	> 100	> 100	> 100	> 100	> 100	> 100	> 100 µM	> 100	> 100									
Cc1cc(NS(=O)(=O)c2ccc(NC(=O)c3cccc4c(NNc5ccc(S(=O)(=O)N=C(N)N)cc5)c5ccccc5nc34)cc2)no1		82.3	> 100	92.6	> 100	> 100	> 100 µM	> 100	64.7	64.2								
CCc1nn(S(=O)(=O)c2ccc(C)cc2)c2c1CS(=O)(=O)CC2	> 100		> 100	> 100	> 100	> 100	> 100 µM	> 100	> 100	> 100								
C[C@@H]1C[C@]2(C[C@@H](C)[C@H]3C(C[C@@]4(C)CCC[C@@H]5C6=C[C@H](CCC34C)OC6=CC(=O)OC5(C)C)O2)OC1=O (stereo not given in full)	> 51.5	> 51.5		> 51.5	> 51.5		> 51.5 µM	> 51.5	> 51.5	> 51.5								
COC(=O)/C=C\C(C#N)(C#N)N=Cc1ccc(C)s1	34.7	1.64	9.11		9.97	3.42	28.2 µM	2.14	28.8	20.5								
CO/C(=N\N=C\c1ccc(Cl)cc1Cl)c1ccncc1		> 10	> 10	> 10	> 10	> 10		> 10	> 10	> 10								
